Results from ChEMBL document CHEMBL4196092, “Synthesis and biological evaluation of nannocystin analogues toward understanding the binding role of the (2R,3S)-Epoxide in nannocystin A” (Eur J Med Chem, 2018).
Active and inactive are the calls of the source. The calls are words filed in the database; no cut-off is given here.

Key:
[1] = test system: HepG2; experiment: Antiproliferative activity against human HepG2 cells; type: functional, cell-based
[2] = test system: PANC-1; experiment: Antiproliferative activity against human PANC1 cells; type: functional, cell-based
[3] = test system: HCT-116; experiment: Antiproliferative activity against human HCT116 cells; type: functional, cell-based
[4] = species on record: Homo sapiens; experiment: Inhibition of eEF1alpha protein expression in human PANC1 cells by Western blot analysis; type: cell-based

| Compound | IC50 [1] | IC50 [2] | IC50 [3] | inhibition [4] |
| --- | --- | --- | --- | --- |
| CC[C@H](C)[C@H]1C(=O)N[C@H](Cc2ccc(O)c(Br)c2)C(=O)N[C@@H](C(C)(C)O)C(=O)O[C@H](c2ccccc2)[C@H](C)/C=C/C=C(\C)[C@H](OC)C[C@@H]2O[C@@]2(C)C(=O)N1C | 2.98 nM | 9.61 nM | 1.59 nM | Active |
| CC[C@H](C)[C@H]1C(=O)N[C@H](Cc2ccc(O)c(Br)c2)C(=O)N[C@@H](C(C)(C)O)C(=O)O[C@H](c2ccccc2)[C@H](C)/C=C/C=C(\C)[C@H](OC)C[C@H]2O[C@]2(C)C(=O)N1C | > 200 nM | > 200 nM | > 200 nM | Active |
| CC[C@H](C)[C@H]1C(=O)N[C@H](Cc2ccc(O)c(Br)c2)C(=O)N[C@@H](C(C)(C)O)C(=O)O[C@H](c2ccccc2)[C@H](C)/C=C/C=C(\C)[C@H](OC)C/C=C(\C)C(=O)N1C | 5.21 nM | 11.4 nM | 3.88 nM | Active |
| CC[C@H](C)[C@H]1C(=O)N[C@H](Cc2cc(Cl)c(O)c(Cl)c2)C(=O)N[C@@H](C(C)(C)O)C(=O)O[C@H](c2ccccc2)[C@H](C)/C=C/C=C(\C)[C@H](OC)C[C@@H]2O[C@@]2(C)C(=O)N1C | 3.36 nM | 12.2 nM | 2.11 nM | Active |
| CC[C@H](C)[C@H]1C(=O)N[C@H](Cc2ccc(O)c(Br)c2)C(=O)N[C@@H](C(C)C)C(=O)O[C@H](c2ccccc2)[C@H](C)/C=C/C=C(\C)[C@H](OC)C/C=C(\C)C(=O)N1C | 53.7 nM | 55.8 nM | 13.2 nM | Active |
| CC[C@H](C)[C@H]1C(=O)N[C@H](Cc2cc(Cl)c(O)c(Cl)c2)C(=O)N[C@@H](C(C)C)C(=O)O[C@H](c2ccccc2)[C@H](C)/C=C/C=C(\C)[C@H](OC)C/C=C(\C)C(=O)N1C | 104 nM | 137 nM | 21.6 nM | Active |
| CC[C@H](C)[C@H]1C(=O)N[C@H](Cc2ccc(O)c(Br)c2)C(=O)N[C@@H](C(C)C)C(=O)O[C@H](c2ccccc2)[C@H](C)/C=C/C=C(\C)[C@H](OC)C[C@@H]2O[C@@]2(C)C(=O)N1C | 6.84 nM | 15.7 nM | 3.93 nM | Active |
| CC[C@H](C)[C@H]1C(=O)N[C@H](Cc2cc(Cl)c(O)c(Cl)c2)C(=O)N[C@@H](C(C)C)C(=O)O[C@H](c2ccccc2)[C@H](C)/C=C/C=C(\C)[C@H](OC)C[C@@H]2O[C@@]2(C)C(=O)N1C | 5.65 nM | 15.5 nM | 4.25 nM | Active |
| CC[C@H](C)[C@H]1C(=O)N[C@H](Cc2cc(Cl)c(O)c(Cl)c2)C(=O)N[C@@H](C(C)(C)O)C(=O)O[C@H](c2ccccc2)[C@H](C)/C=C/C=C(\C)[C@H](OC)C[C@H]2O[C@]2(C)C(=O)N1C | > 200 nM | > 200 nM | > 200 nM | Active |
| CC[C@H](C)[C@H]1C(=O)N[C@H](Cc2cc(Cl)c(O)c(Cl)c2)C(=O)N[C@@H](C(C)(C)O)C(=O)O[C@H](c2ccccc2)[C@H](C)/C=C/C=C(\C)[C@H](OC)C/C=C(\C)C(=O)N1C | 2.75 nM | 11.3 nM | 1.6 nM | Active |
